Results on six compounds are retold here after ChEMBL document CHEMBL5537170, “Design, Synthesis, and Anti-Osteoporotic Characterization of Arginine N-Glycosylated Teriparatide Analogs via the Silver-catalyzed Solid-Phase Glycosylation Strategy” (J Med Chem, 2024).

This series is described as follows: Cytotoxicity against C57BL/6 mouse Pre-Osteoblast cells assessed as cell death upto 5 uM incubated for 4 days by CCK-8 assay. Type of series: toxicity, cell-based. The note with it: 96 h, time 4 day. In general terms: Tetrazolium assays rely on reduction of a dye to a coloured formazan, in cell work by metabolically active cells.
On to `CC[C@H](C)[C@H](NC(=O)[C@H](CCC(=O)O)NC(=O)[C@H](CO)NC(=O)[C@@H](NC(=O)[C@H](CO)NC(C)=O)C(C)C)C(=O)N[C@@H](CCC(N)=O)C(=O)N[C@@H](CC(C)C)C(=O)N[C@@H](CCSC)C(=O)N[C@@H](Cc1cnc[nH]1)C(=O)N[C@@H](CC(N)=O)C(=O)N[C@@H](CC(C)C)C(=O)NCC(=O)N[C@@H](CCCCN)C(=O)N[C@@H](Cc1cnc[nH]1)C(=O)N[C@@H](CC(C)C)C(=O)N[C@@H](CC(N)=O)C(=O)N[C@@H](CO)C(=O)N[C@@H](CCSC)C(=O)N[C@@H](CCC(=O)O)C(=O)N[C@@H](CCCNC(=N)N[C@@H]1O[C@H](CO)[C@@H](O[C@H]2O[C@H](CO)[C@@H](O)[C@H](O)[C@H]2O)[C@H](O)[C@H]1O)C(=O)N[C@H](C(=O)N[C@@H](CCC(=O)O)C(=O)N[C@@H](Cc1c[nH]c2ccccc12)C(=O)N[C@@H](CC(C)C)C(=O)N[C@@H](CCCNC(=N)N[C@@H]1O[C@H](CO)[C@@H](O[C@H]2O[C@H](CO)[C@@H](O)[C@H](O)[C@H]2O)[C@H](O)[C@H]1O)C(=O)N[C@@H](CCCCN)C(=O)N[C@@H](CCCCN)C(=O)N[C@@H](CC(C)C)C(=O)N[C@@H](CCC(N)=O)C(=O)N[C@@H](CC(=O)O)C(=O)N[C@H](C(=O)N[C@@H](Cc1cnc[nH]1)C(=O)N[C@@H](CC(N)=O)C(=O)N[C@@H](Cc1ccccc1)C(N)=O)C(C)C)C(C)C`, for which the Activity result is on record as “Non-Toxic”. The result for `CC[C@H](C)[C@H](NC(=O)[C@H](CCC(=O)O)NC(=O)[C@H](CO)NC(=O)[C@@H](NC(=O)[C@H](CO)NC(C)=O)C(C)C)C(=O)N[C@@H](CCC(N)=O)C(=O)N[C@@H](CC(C)C)C(=O)N[C@@H](CCSC)C(=O)N[C@@H](Cc1cnc[nH]1)C(=O)N[C@@H](CC(N)=O)C(=O)N[C@@H](CC(C)C)C(=O)NCC(=O)N[C@@H](CCCCN)C(=O)N[C@@H](Cc1cnc[nH]1)C(=O)N[C@@H](CC(C)C)C(=O)N[C@@H](CC(N)=O)C(=O)N[C@@H](CO)C(=O)N[C@@H](CCSC)C(=O)N[C@@H](CCC(=O)O)C(=O)N[C@@H](CCCNC(=N)N[C@H]1O[C@H](CO)[C@@H](O)[C@H](O)[C@H]1O)C(=O)N[C@H](C(=O)N[C@@H](CCC(=O)O)C(=O)N[C@@H](Cc1c[nH]c2ccccc12)C(=O)N[C@@H](CC(C)C)C(=O)N[C@@H](CCCNC(=N)N)C(=O)N[C@@H](CCCCN)C(=O)N[C@@H](CCCCN)C(=O)N[C@@H](CC(C)C)C(=O)N[C@@H](CCC(N)=O)C(=O)N[C@@H](CC(=O)O)C(=O)N[C@H](C(=O)N[C@@H](Cc1cnc[nH]1)C(=O)N[C@@H](CC(N)=O)C(=O)N[C@@H](Cc1ccccc1)C(N)=O)C(C)C)C(C)C` reads “Non-Toxic”. For `CC[C@H](C)[C@H](NC(=O)[C@H](CCC(=O)O)NC(=O)[C@H](CO)NC(=O)[C@@H](NC(=O)[C@H](CO)NC(C)=O)C(C)C)C(=O)N[C@@H](CCC(N)=O)C(=O)N[C@@H](CC(C)C)C(=O)N[C@@H](CCSC)C(=O)N[C@@H](Cc1cnc[nH]1)C(=O)N[C@@H](CC(N)=O)C(=O)N[C@@H](CC(C)C)C(=O)NCC(=O)N[C@@H](CCCCN)C(=O)N[C@@H](Cc1cnc[nH]1)C(=O)N[C@@H](CC(C)C)C(=O)N[C@@H](CC(N)=O)C(=O)N[C@@H](CO)C(=O)N[C@@H](CCSC)C(=O)N[C@@H](CCC(=O)O)C(=O)N[C@@H](CCCNC(=N)N[C@@H]1O[C@@H](C)[C@H](O)[C@@H](O)[C@H]1O)C(=O)N[C@H](C(=O)N[C@@H](CCC(=O)O)C(=O)N[C@@H](Cc1c[nH]c2ccccc12)C(=O)N[C@@H](CC(C)C)C(=O)N[C@@H](CCCNC(=N)N)C(=O)N[C@@H](CCCCN)C(=O)N[C@@H](CCCCN)C(=O)N[C@@H](CC(C)C)C(=O)N[C@@H](CCC(N)=O)C(=O)N[C@@H](CC(=O)O)C(=O)N[C@H](C(=O)N[C@@H](Cc1cnc[nH]1)C(=O)N[C@@H](CC(N)=O)C(=O)N[C@@H](Cc1ccccc1)C(N)=O)C(C)C)C(C)C`, the Activity entry was “Non-Toxic”. As to `CC[C@H](C)[C@H](NC(=O)[C@H](CCC(=O)O)NC(=O)[C@H](CO)NC(=O)[C@@H](NC(=O)[C@H](CO)NC(C)=O)C(C)C)C(=O)N[C@@H](CCC(N)=O)C(=O)N[C@@H](CC(C)C)C(=O)N[C@@H](CCSC)C(=O)N[C@@H](Cc1cnc[nH]1)C(=O)N[C@@H](CC(N)=O)C(=O)N[C@@H](CC(C)C)C(=O)NCC(=O)N[C@@H](CCCCN)C(=O)N[C@@H](Cc1cnc[nH]1)C(=O)N[C@@H](CC(C)C)C(=O)N[C@@H](CC(N)=O)C(=O)N[C@@H](CO)C(=O)N[C@@H](CCSC)C(=O)N[C@@H](CCC(=O)O)C(=O)N[C@@H](CCCNC(=N)N)C(=O)N[C@H](C(=O)N[C@@H](CCC(=O)O)C(=O)N[C@@H](Cc1c[nH]c2ccccc12)C(=O)N[C@@H](CC(C)C)C(=O)N[C@@H](CCCNC(=N)N[C@@H]1O[C@H](CO)[C@H](O)[C@H](O)[C@H]1O)C(=O)N[C@@H](CCCCN)C(=O)N[C@@H](CCCCN)C(=O)N[C@@H](CC(C)C)C(=O)N[C@@H](CCC(N)=O)C(=O)N[C@@H](CC(=O)O)C(=O)N[C@H](C(=O)N[C@@H](Cc1cnc[nH]1)C(=O)N[C@@H](CC(N)=O)C(=O)N[C@@H](Cc1ccccc1)C(N)=O)C(C)C)C(C)C`, the Activity entry was “Non-Toxic”. In the case of `CC[C@H](C)[C@H](NC(=O)[C@H](CCC(=O)O)NC(=O)[C@H](CO)NC(=O)[C@@H](NC(=O)[C@H](CO)NC(C)=O)C(C)C)C(=O)N[C@@H](CCC(N)=O)C(=O)N[C@@H](CC(C)C)C(=O)N[C@@H](CCSC)C(=O)N[C@@H](Cc1cnc[nH]1)C(=O)N[C@@H](CC(N)=O)C(=O)N[C@@H](CC(C)C)C(=O)NCC(=O)N[C@@H](CCCCN)C(=O)N[C@@H](Cc1cnc[nH]1)C(=O)N[C@@H](CC(C)C)C(=O)N[C@@H](CC(N)=O)C(=O)N[C@@H](CO)C(=O)N[C@@H](CCSC)C(=O)N[C@@H](CCC(=O)O)C(=O)N[C@@H](CCCNC(=N)N[C@@H]1O[C@H](CO)[C@@H](O[C@H]2O[C@H](CO)[C@@H](O)[C@H](O)[C@H]2O)[C@H](O)[C@H]1O)C(=O)N[C@H](C(=O)N[C@@H](CCC(=O)O)C(=O)N[C@@H](Cc1c[nH]c2ccccc12)C(=O)N[C@@H](CC(C)C)C(=O)N[C@@H](CCCNC(=N)N)C(=O)N[C@@H](CCCCN)C(=O)N[C@@H](CCCCN)C(=O)N[C@@H](CC(C)C)C(=O)N[C@@H](CCC(N)=O)C(=O)N[C@@H](CC(=O)O)C(=O)N[C@H](C(=O)N[C@@H](Cc1cnc[nH]1)C(=O)N[C@@H](CC(N)=O)C(=O)N[C@@H](Cc1ccccc1)C(N)=O)C(C)C)C(C)C`, the Activity entry is on record as “Non-Toxic”. The result for `CC[C@H](C)[C@H](NC(=O)[C@H](CCC(=O)O)NC(=O)[C@H](CO)NC(=O)[C@@H](NC(=O)[C@H](CO)NC(C)=O)C(C)C)C(=O)N[C@@H](CCC(N)=O)C(=O)N[C@@H](CC(C)C)C(=O)N[C@@H](CCSC)C(=O)N[C@@H](Cc1cnc[nH]1)C(=O)N[C@@H](CC(N)=O)C(=O)N[C@@H](CC(C)C)C(=O)NCC(=O)N[C@@H](CCCCN)C(=O)N[C@@H](Cc1cnc[nH]1)C(=O)N[C@@H](CC(C)C)C(=O)N[C@@H](CC(N)=O)C(=O)N[C@@H](CO)C(=O)N[C@@H](CCSC)C(=O)N[C@@H](CCC(=O)O)C(=O)N[C@@H](CCCNC(=N)N[C@@H]1O[C@H](CO)[C@@H](O)[C@H]1O)C(=O)N[C@H](C(=O)N[C@@H](CCC(=O)O)C(=O)N[C@@H](Cc1c[nH]c2ccccc12)C(=O)N[C@@H](CC(C)C)C(=O)N[C@@H](CCCNC(=N)N)C(=O)N[C@@H](CCCCN)C(=O)N[C@@H](CCCCN)C(=O)N[C@@H](CC(C)C)C(=O)N[C@@H](CCC(N)=O)C(=O)N[C@@H](CC(=O)O)C(=O)N[C@H](C(=O)N[C@@H](Cc1cnc[nH]1)C(=O)N[C@@H](CC(N)=O)C(=O)N[C@@H](Cc1ccccc1)C(N)=O)C(C)C)C(C)C` reads “Non-Toxic”.
